Laboratory results as given in PubChem BioAssay (NCI).
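48-hour exposure; five concentrations; linearly interpolated endpoints. The concentration for full growth arrest is given as TGI.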

Legend:
Test in all cases: NCI anticancer screen, dose series, 48 h
COLO 205 colon = system: COLO 205 colon
MDA-N = system: MDA-N
HCT-116 colon = system: HCT-116 colon
SK-OV-3 ovarian = system: SK-OV-3 ovarian
LOX IMVI melanoma = system: LOX IMVI melanoma
U251 CNS = system: U251 CNS
UACC-257 melanoma = system: UACC-257 melanoma
SR leukemia = system: SR leukemia
HOP-62 NSCLC = system: HOP-62 NSCLC
SN12C renal = system: SN12C renal
T-47D breast = system: T-47D breast
SNB-19 CNS = system: SNB-19 CNS
MOLT-4 leukemia = system: MOLT-4 leukemia
RPMI-8226 leukemia = system: RPMI-8226 leukemia
786-0 renal = system: 786-0 renal
IGROV1 ovarian = system: IGROV1 ovarian
HT29 colon = system: HT29 colon
CCRF-CEM leukemia = system: CCRF-CEM leukemia
RXF 393 renal = system: RXF 393 renal
HOP-92 NSCLC = system: HOP-92 NSCLC

| Compound | TGI (COLO 205 colon) [µM] | TGI (MDA-N) [µM] | TGI (HCT-116 colon) [µM] | TGI (SK-OV-3 ovarian) [µM] | TGI (LOX IMVI melanoma) [µM] | TGI (U251 CNS) [µM] | TGI (UACC-257 melanoma) [µM] | TGI (SR leukemia) [µM] | TGI (HOP-62 NSCLC) [µM] | TGI (SN12C renal) [µM] | TGI (T-47D breast) [µM] | TGI (SNB-19 CNS) [µM] | TGI (MOLT-4 leukemia) [µM] | TGI (RPMI-8226 leukemia) [µM] | TGI (786-0 renal) [µM] | TGI (IGROV1 ovarian) [µM] | TGI (HT29 colon) [µM] | TGI (CCRF-CEM leukemia) [µM] | TGI (RXF 393 renal) [µM] | TGI (HOP-92 NSCLC) [µM] |
| --- | --- | --- | --- | --- | --- | --- | --- | --- | --- | --- | --- | --- | --- | --- | --- | --- | --- | --- | --- | --- |
| Cc1c(-c2ccc(O)cc2)n(CCCCCCNCCOC(=O)NCCCc2ccc(N(CCCl)CCCl)cc2)c2ccc(O)cc12 | 7.57 | 3.47 | 2.94 | 22.4 | 2.97 | 13.5 | 3.57 | 3.18 | 8.57 | 6.22 | 5.8 | 28.1 | 2.92 | 2.98 | 2.97 | 5.9 | 3.09 | 6.67 | – | – |
| CC1=CC(=O)[C@@H](O)[C@]2(C)[C@H]3[C@@]4(O)OC[C@]35[C@H]([C@@H](C)[C@H]4O)[C@@H](OC(=O)C(C)(C)CO)C(=O)O[C@@H]5C[C@@H]12 | 7 | 0.825 | 2.11 | > 81.4 | 0.0741 | – | – | – | 1.63 | 4.5 | – | 0.626 | – | 0.0968 | 4.83 | – | 10.4 | – | 2.23 | – |
| NC1c2c(Br)sc(N3CCCC3)c2C(=O)C1O (stereo not drawn) | > 50 | > 50 | > 50 | > 50 | > 50 | > 50 | > 50 | – | – | > 50 | > 50 | > 50 | > 50 | – | > 50 | > 50 | > 50 | > 50 | – | > 50 |
| Cc1ccc(-c2n[nH]c(Cc3nc(-c4ccc(C)cc4)n[nH]3)n2)cc1 | > 100 | > 100 | > 100 | > 100 | > 100 | 33.8 | > 100 | – | > 100 | > 100 | – | > 100 | > 100 | > 100 | > 100 | > 100 | > 100 | > 100 | > 100 | > 100 |
| CC(C)=C1C(=O)C[C@]2(C)C[C@H]3O[C@]3(C)CC[C@@H]3O[C@@]3(C)CC[C@@H]12 | > 50 | – | > 50 | > 50 | > 50 | > 50 | > 50 | > 50 | > 50 | > 50 | > 50 | > 50 | > 50 | > 50 | > 50 | > 50 | > 50 | > 50 | > 50 | > 50 |
| COC1(c2ccc(Cl)cc2)SC=C(C)n2c1noc2=O (stereo not drawn) | > 100 | > 100 | > 100 | – | > 100 | > 100 | > 100 | > 100 | – | > 100 | – | > 100 | > 100 | > 100 | > 100 | > 100 | > 100 | > 100 | > 100 | > 100 |
| NC(=O)c1ccc(C(=O)Nc2ccc([As](=O)(O)O)cc2)cc1 | > 100 | > 100 | > 100 | > 100 | > 100 | > 100 | – | – | > 100 | > 100 | > 100 | > 100 | > 100 | > 100 | > 100 | > 100 | > 100 | > 100 | > 100 | > 100 |
| COc1cc(NC(C)c2ccc3c(c2)OCCO3)cc(OC)c1OC (stereo not drawn) | 71.8 | 30.2 | > 100 | – | > 100 | 94.1 | > 100 | > 100 | > 100 | > 100 | – | > 100 | > 100 | 84.6 | > 100 | > 100 | > 100 | – | > 100 | > 100 |
| O=C(C1OC1c1ccc(Cl)cc1)C12CC3CC(CC(C3)C1)C2 (stereo not drawn) | 35.7 | 36.6 | 28.8 | 74 | 16.6 | 29.2 | 54.7 | – | 56.5 | 32.2 | > 100 | > 100 | 51.9 | – | 30.7 | 67.4 | 41.9 | 52.3 | 39.2 | 39 |
| CC1OC(OC2C(OC(=O)[C@]34CCC(C)(C)C[C@H]3C3=CC[C@@H]5[C@@]6(C)CC[C@H](OC7OC(C(=O)O)C(O)C(O)C7O)C(C)(C)[C@@H]6CC[C@@]5(C)[C@]3(C)C[C@H]4O)OCC(O)C2O)C(O)C(O)C1OC1OCC(OC2OCC(O)C(O)C2O)C(O)C1O (stereo partly drawn) | 3.32 | – | 16.6 | 26.9 | 24.2 | 21.2 | 23 | 53.9 | 27.1 | 5.68 | 26.3 | 18.4 | 37.1 | 51.5 | 23.3 | 26.5 | 11 | – | 29 | 19.5 |
| COc1c2c(cc3c1C(=O)c1c(O)cccc1C3=O)CC(O)CC2 (stereo not drawn) | > 100 | > 100 | > 100 | 59 | > 100 | > 100 | > 100 | – | 46 | > 100 | 93.6 | 57.1 | > 100 | – | > 100 | > 100 | > 100 | > 100 | – | 40.1 |
| CC1OC(OC2C(O[C@H]3CC[C@@H]4C(=CC[C@@H]5[C@@]4(C)C(=O)C[C@]4(C)[C@@H]([C@H](C)CC[C@@H](O)C(C)(C)O)CC[C@@]54C)C3(C)C)OC(CO)C(O)C2O)C(O)C(O)C1O (stereo partly drawn) | > 100 | > 100 | > 100 | > 100 | > 100 | > 100 | > 100 | – | > 100 | > 100 | > 100 | > 100 | > 100 | – | > 100 | > 100 | > 100 | > 100 | > 100 | > 100 |
| NC1CC(=O)c2cscc21 (stereo not drawn) | 52 | > 100 | > 100 | > 100 | > 100 | > 100 | > 100 | – | > 100 | > 100 | 40.3 | > 100 | > 100 | > 100 | 28.4 | > 100 | > 100 | 38.2 | > 100 | 49.6 |
| C/C=C/C(C#N)(/C=C/c1ccccc1)OP1(=O)OC(c2ccccc2)C(C)N1C (stereo not drawn) | 32.1 | 39 | 31.3 | 55.3 | 35 | 32.8 | 35.1 | – | 36.1 | 35.5 | 68.9 | 42.1 | 28.8 | 40 | 31.7 | 32.8 | 44.7 | 28 | 38.5 | 31.6 |
| Nc1ccccc1-c1noc(=O)[nH]1 | > 100 | – | > 100 | > 100 | > 100 | > 100 | > 100 | > 100 | > 100 | > 100 | > 100 | > 100 | > 100 | > 100 | > 100 | > 100 | > 100 | > 100 | > 100 | > 100 |
| Cc1cccc2oc3c(CC(=O)O)cccc3c(=O)c12 | > 100 | > 100 | > 100 | – | > 100 | > 100 | > 100 | > 100 | > 100 | > 100 | – | > 100 | > 100 | > 100 | > 100 | > 100 | > 100 | > 100 | – | > 100 |
| S=c1nc2sc3c(c2c(Nc2ccc(Cl)cc2)[nH]1)CCCC3 | > 100 | > 100 | > 100 | > 100 | > 100 | > 100 | > 100 | > 100 | > 100 | > 100 | – | > 100 | > 100 | 72.4 | > 100 | > 100 | > 100 | > 100 | > 100 | > 100 |
| O=C1NC(N/N=C/C(O)C(O)C(O)C(O)CO)=N/C1=C\c1ccco1 (stereo not drawn) | > 100 | > 100 | > 100 | > 100 | > 100 | > 100 | > 100 | – | > 100 | > 100 | > 100 | > 100 | > 100 | > 100 | > 100 | > 100 | > 100 | > 100 | > 100 | > 100 |
| CC(=O)Nc1oc(C)c(C)c1S(=O)(=O)c1ccc(Cl)cc1 | > 100 | – | > 100 | > 100 | – | > 100 | > 100 | > 100 | – | – | > 100 | > 100 | > 100 | > 100 | > 100 | > 100 | > 100 | > 100 | > 100 | > 100 |
| C=C(C)[C@@H]1CCC2=C[C@@H](OC2=O)[C@@H](C(=C)C)C2=CC(C(=O)O)=C(C1)O2 | > 100 | > 100 | > 100 | > 100 | > 100 | – | > 100 | – | > 100 | > 100 | > 100 | > 100 | > 100 | > 100 | > 100 | > 100 | > 100 | > 100 | > 100 | > 100 |
| Cc1sc(Nc2ccc(Nc3nc(-c4ccccc4)c(C)s3)cc2)nc1-c1ccccc1 | 42.1 | – | > 100 | > 100 | > 100 | 49.6 | > 100 | > 100 | > 100 | > 100 | > 100 | > 100 | > 100 | – | > 100 | > 100 | > 100 | > 100 | 81.5 | > 100 |
| CC(=O)c1cccc(Nc2nc3ccccc3c3occc23)c1 | > 100 | – | 50 | 40.8 | > 100 | 55.9 | > 100 | > 100 | 34.6 | 45.6 | > 100 | 60.9 | > 100 | > 100 | 40 | – | > 100 | > 100 | 41.7 | 33 |
| CN(Cc1cnc2nc(N)nc(N)c2n1)c1ccc(C(=O)NCCS(=O)(=O)O)cc1 | > 100 | > 100 | > 100 | > 100 | > 100 | > 100 | > 100 | > 100 | > 100 | > 100 | > 100 | > 100 | > 100 | > 100 | > 100 | > 100 | > 100 | – | – | – |
| Cc1ccc2c(c1)[nH]c(=S)n2C=C(C(N)=O)C(N)=O | > 100 | > 100 | > 100 | > 100 | > 100 | > 100 | > 100 | – | > 100 | > 100 | > 100 | > 100 | – | – | > 100 | > 100 | > 100 | – | > 100 | > 100 |
| c1ccc(C(C2=Nc3cccc4cccc(c34)N2)c2ccccc2)cc1 | 36.7 | 49.3 | – | 51.8 | 37.3 | 35.3 | 68 | – | 56.6 | 30.2 | 37 | > 100 | – | > 100 | 69.9 | > 100 | 60.1 | > 100 | 61.5 | 44 |
